Test results taken from patent publication US10780090B2, “Heteroaryl compounds useful as inhibitors of SUMO activating enzyme” (Millennium Pharmaceuticals, Inc., priority 2014, dated 2020).

Target: recombinant human SAE enzyme (Homo sapiens (Human), UniProt Q9UBT2)
Test: SAE HTRF enzyme assay
Assay type: biochemical
Settings: for inhibition at 0.111 µM: read-out: Percent Inhibition
In short: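 0.11 nM SAE incubated with 0.5 μM ATP, 0.01 μM Ubc9-GST and 0.125 μM Sumo-Flag in HEPES pH 7.5, MgCl2, GSH, BSA, ±inhibitor, 105 min at 24° C. EDTA stop; Eu-cryptate anti-Flag/XL-APC anti-GST HTRF read after 2 h. Values given as single-concentration % inhibition or IC50.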

[1] = SAE inhibition at compound concentration 0.111 μM
[2] = SAE inhibition, class symbols, legend in nM

Chain of recombinant human SAE enzyme (Q9UBT2 whole entry): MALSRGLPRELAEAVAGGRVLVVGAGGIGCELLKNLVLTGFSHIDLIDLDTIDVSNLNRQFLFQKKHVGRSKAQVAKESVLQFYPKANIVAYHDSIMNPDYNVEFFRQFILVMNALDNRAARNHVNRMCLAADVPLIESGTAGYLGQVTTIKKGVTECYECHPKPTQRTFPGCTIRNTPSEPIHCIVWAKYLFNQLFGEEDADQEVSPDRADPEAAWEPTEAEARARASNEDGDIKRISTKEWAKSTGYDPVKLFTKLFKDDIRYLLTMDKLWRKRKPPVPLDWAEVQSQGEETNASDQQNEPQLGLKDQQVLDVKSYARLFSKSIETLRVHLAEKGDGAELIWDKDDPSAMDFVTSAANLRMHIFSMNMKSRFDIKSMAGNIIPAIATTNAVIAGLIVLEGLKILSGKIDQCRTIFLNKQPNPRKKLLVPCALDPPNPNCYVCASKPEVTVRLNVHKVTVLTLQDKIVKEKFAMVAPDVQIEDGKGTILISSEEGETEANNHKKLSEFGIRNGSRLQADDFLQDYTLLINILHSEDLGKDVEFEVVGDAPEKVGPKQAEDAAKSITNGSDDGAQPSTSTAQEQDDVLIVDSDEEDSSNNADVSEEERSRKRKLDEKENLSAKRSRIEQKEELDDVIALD
Chain of recombinant human SAE enzyme (Q9UBE0 whole entry partner): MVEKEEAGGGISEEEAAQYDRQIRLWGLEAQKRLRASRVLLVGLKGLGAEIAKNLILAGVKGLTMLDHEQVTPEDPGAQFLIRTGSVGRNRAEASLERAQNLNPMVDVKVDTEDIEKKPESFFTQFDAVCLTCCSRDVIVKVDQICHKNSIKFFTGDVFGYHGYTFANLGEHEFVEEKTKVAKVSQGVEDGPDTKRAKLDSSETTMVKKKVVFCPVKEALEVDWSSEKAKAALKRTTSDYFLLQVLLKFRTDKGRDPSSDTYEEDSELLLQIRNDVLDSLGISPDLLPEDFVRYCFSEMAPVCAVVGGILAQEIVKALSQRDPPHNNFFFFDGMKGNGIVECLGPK

Compound | Percent Inhibition (Concentration 0.111 μM) | IC50 (class symbols A/B/C) | inhibition at 0.111 µM (Concentration 0.111 μM) | Percent Inhibition [1] | IC50 [2]
NS(=O)(=O)OC[C@H]1C[C@@H](Nc2ncncc2C(=O)c2cc(C(=O)c3ccccc3)c(Cl)s2)C[C@@H]1O [I-215, [(1R,2S,4R)-4-({5-(4-Benzoyl-5-chlor-2-thienyl)carbonyl]pyrimidin-4-yl}amino)-2-hydroxycyclopentyl]methyl sulfamate] | 36 | 100 to 1000 nM |  |  | 
C[C@@](O)(c1ccccc1)c1coc(C(=O)c2cncnc2N[C@@H]2C[C@H](COS(N)(=O)=O)[C@@H](O)C2)c1.C[C@](O)(c1ccccc1)c1coc(C(=O)c2cncnc2N[C@@H]2C[C@H](COS(N)(=O)=O)[C@@H](O)C2)c1 (mixture of isomers) [I-58, {(1R,2S,4R)-2-hydroxy-4-[(5-{4-[(1S)-1-hydroxy-1-phenylethyl]-2-furoyl}pyrimidin-4-yl)amino]cyclopentyl}methyl sulfamate and {(1R,2S,4R)-2-hydroxy-4-[(5-{4-[(1R)-1-hydroxy-1-phenylethyl]-2-furoyl}pyrimidin-4-yl)amino]cyclopentyl}methyl sulfamate] | 96 | < 10 nM |  |  | 
NS(=O)(=O)OCC1CC(Nc2ncncc2C(=O)c2cc(C(O)c3cccc(Cl)c3)c(CO)s2)CC1O (mixture of isomers) [I-13, [(1R,2S,4R)-4-{[5-({4-[(R)-(3-chlorophenyl)(hydroxy)methyl]-5-(hydroxymethyl)-2-thienyl}carbonyl)pyrimidin-4-yl]amino}-2-hydroxycyclopentyl]methyl sulfamate and [(1R,2S,4R)-4-{[5-({4-[(S)-(3-chlorophenyl)(hydroxy)methyl]-5-(hydroxymethyl)-2-thienyl}carbonyl)pyrimidin-4-yl]amino}-2-hydroxycyclopentyl]methyl sulfamate] | 100 | < 10 nM |  |  | 
NS(=O)(=O)OC[C@H]1C[C@@H](Nc2ncncc2C(=O)c2cc(C3NCCc4ccc(Cl)cc43)c(Cl)s2)C[C@@H]1O (single isomer, unassigned) [I-255b, [(1R,2S,4R)-4-{[5-({5-chloro-4-[(1R)-7-chloro-1,2,3,4-tetrahydroisoquinolin-1-yl]-2-thienyl}carbonyl)pyrimidin-4-yl]amino}-2-hydroxycyclopentyl]methyl sulfamate or [(1R,2S,4R)-4-{[5-({5-chloro-4-[(1S)-7-chloro-1,2,3,4-tetrahydroisoquinolin-1-yl-2-thienyl}carbonyl)pyrimidin-4-yl]amino}-2-hydroxycyclopentyl]methyl sulfamate] | 100 | < 10 nM |  |  | 
NS(=O)(=O)OC[C@H]1C[C@@H](Nc2ncncc2C(=O)c2cc(CN3CC=CCC3)cs2)C[C@@H]1O [I-204, {(1R,2S,4R)-4-[(5-{[4-(3,6-dihydropyridin-1(2H)-ylmethyl)-2-thienyl]carbonyl}pyrimidin-4-yl)amino]-2-hydroxycyclopentyl}methyl sulfamate] |  | 10 to 100 nM | 52% |  | 
NS(=O)(=O)OC[C@H]1C[C@@H](Nc2ncncc2C(=O)c2cc([C@@H]3OCC(F)(F)c4ccc(Cl)cc43)cs2)C[C@@H]1O (single isomer, unassigned) [I-289a, [(1R,2S,4R)-4-{[5-({4-[(1R)-7-chloro-4,4-difluoro-3,4-dihydro-1H-isochromen-1-yl]-2-thienyl}carbonyl)pyrimidin-4-yl]amino}-2-hydroxycyclopentyl]methyl sulfamate or [(1R,2S,4R)-4-{[5-({4-[(1S)-7-chloro-4,4-difluoro-3,4-dihydro-1H-isochromen-1-yl]-2-thienyl}carbonyl)pyrimidin-4-yl]amino}-2-hydroxycyclopentyl]methyl sulfamate] |  |  |  | 16% | 100 to 1000 nM
NS(=O)(=O)OC[C@H]1C[C@@H](Nc2ncncc2C(=O)c2cc([C@@]3(c4cccc(Cl)c4)CCCN3)cs2)C[C@@H]1O (single isomer, unassigned) [I-38b, [(1R,2S,4R)-4-{[5-({4-[(2S)-2-(3-chlorophenyl)pyrrolidin-2-yl]-2-thienyl}carbonyl)pyrimidin-4-yl]amino}-2-hydroxycyclopentyl]methyl sulfamate or [(1R,2S,4R)-4-{[5-({4-[(2R)-2-(3-chlorophenyl)pyrrolidin-2-yl]-2-thienyl}carbonyl)pyrimidin-4-yl]amino}-2-hydroxycyclopentyl]methyl sulfamate] | 98 | < 10 nM |  |  | 
NS(=O)(=O)OC[C@H]1C[C@@H](Nc2ncncc2C(=O)c2cc([C@H](O)c3cccc(Cl)n3)c(Cl)s2)C[C@@H]1O (single isomer, unassigned) [I-2b, [(1R,2S,4R)-4-{[5-({5-chloro-4-[(S)-(6-chloropyridin-2-yl)(hydroxy)methyl]-2-thienyl}carbonyl)pyrimidin-4-yl]amino}-2-hydroxycyclopentyl]methyl sulfamate or [(1R,2S,4R)-4-{[5-({5-chloro-4-[(R)-(6-chloropyridin-2-yl)(hydroxy)methyl]-2-thienyl}carbonyl)pyrimidin-4-yl]amino}-2-hydroxycyclopentyl]methyl sulfamate] | 61 | 10 to 100 nM |  |  | 
NS(=O)(=O)OC[C@H]1C[C@@H](Nc2ncncc2C(=O)c2cc([C@@H]3OCCc4ccc(Cl)nc43)c(Cl)s2)C[C@@H]1O (single isomer, unassigned) [I-276b, [(1R,2S,4R)-4-{[5-({5-chloro-4-[(8S)-2-chloro-5,8-dihydro-6H-pyrano[3,4-b]pyridin-8-yl]-2-thienyl}carbonyl)pyrimidin-4-yl]amino}-2-hydroxycyclopentyl]methyl sulfamate or [(1R,2S,4R)-4-{[5-({5-chloro-4-[(8R)-2-chloro-5,8-dihydro-6H-pyrano[3,4-b]pyridin-8-yl]-2-thienyl}carbonyl)pyrimidin-4-yl]amino}-2-hydroxycyclopentyl]methyl sulfamate] | 101 | < 10 nM |  |  | 
NS(=O)(=O)OC[C@H]1C[C@@H](Nc2ncncc2C(=O)c2cc([C@H](O)c3cc(Br)ccc3F)cs2)C[C@@H]1O (single isomer, unassigned) [I-19b, [(1R,2S,4R)-4-{[5-({4-[(R)-(5-bromo-2-fluorophenyl)(hydroxy)methyl]-2-thienyl}carbonyl)pyrimidin-4-yl]amino}-2-hydroxycyclopentyl]methyl sulfamate or [(1R,2S,4R)-4-{[5-({4-[(S)-(5-bromo-2-fluorophenyl)(hydroxy)methyl]-2-thienyl}carbonyl)pyrimidin-4-yl]amino}-2-hydroxycyclopentyl]methyl sulfamate] | 99 | < 10 nM |  |  | 
NS(=O)(=O)OC[C@H]1C[C@@H](Nc2ncncc2C(=O)c2cc([C@@H]3NCc4ccc(Cl)cc43)c(Cl)s2)C[C@@H]1O (single isomer, unassigned) [I-262b, [(1R,2S,4R)-4-{[5-({5-chloro-4-[(1R)-6-chloro-2,3-dihydro-1H-isoindol-1-yl]-2-thienyl}carbonyl)pyrimidin-4-yl]amino}-2-hydroxycyclopentyl]methyl sulfamate or [(1R,2S,4R)-4-{[5-({5-chloro-4-[(1S)-6-chloro-2,3-dihydro-1H-isoindol-1-yl]-2-thienyl}carbonyl)pyrimidin-4-yl]amino}-2-hydroxycyclopentyl]methyl sulfamate] | 98 | < 10 nM |  |  | 
C=C(C)[C@H](O)c1cc(C(=O)c2cncnc2N[C@@H]2C[C@H](COS(N)(=O)=O)[C@@H](O)C2)sc1Cl (mixture of isomers) [I-141, [(1R,2S,4R)-4-{[5-({5-chloro-4-[(1S)-1-hydroxy-2-methylprop-2-en-1-yl]-2-thienyl}carbonyl)pyrimidin-4-yl]amino}-2-hydroxycyclopentyl]methyl sulfamate and [(1R,2S,4R)-4-{[5-({5-chloro-4-[(1R)-1-hydroxy-2-methylprop-2-en-1-yl]-2-thienyl}carbonyl)pyrimidin-4-yl]amino}-2-hydroxycyclopentyl]methyl sulfamate] | 95 | < 10 nM |  |  | 
Cc1sc(C(=O)c2cncnc2N[C@@H]2C[C@H](COS(N)(=O)=O)[C@@H](O)C2)cc1[C@@H]1OCCc2sc(C(F)(F)F)nc21 (mixture of isomers) [I-315, [(1R,2S,4R)-2-hydroxy-4-{[5-({5-methyl-4-[(4S)-2-(trifluoromethyl)-6,7-dihydro-4H-pyrano[3,4-d][1,3]thiazol-4-yl]-2-thienyl}carbonyl)pyrimidin-4-yl]amino}cyclopentyl]methyl sulfamate and [(1R,2S,4R)-2-hydroxy-4-{[5-({5-methyl-4-[(4R)-2-(trifluoromethyl)-6,7-dihydro-4H-pyrano[3,4-d][1,3]thiazol-4-yl]-2-thienyl}carbonyl)pyrimidin-4-yl]amino}cyclopentyl]methyl sulfamate] |  |  |  | 97% | < 10 nM
Cc1oc(C(=O)c2cncnc2N[C@@H]2C[C@H](COS(N)(=O)=O)[C@@H](O)C2)cc1Cc1cccc(Br)c1 [I-34, [(1R,2S,4R)-4-({5-[4-(3-bromobenzyl)-5-methyl-2-furoyl]pyrimidin-4-yl}amino)-2-hydroxycyclopentyl]methyl sulfamate] |  | < 10 nM | 99% |  | 
NS(=O)(=O)OC[C@H]1C[C@@H](Nc2ncncc2C(=O)c2cc(S(=O)(=O)c3ccccc3)cs2)C[C@@H]1O [I-200, {(1R,2S,4R)-2-Hydroxy-4-[(5-[4-(phenylsulfonyl)-2-thienyl]carbonyl}pyrimidin-4-yl)amino]cyclopentyl}methyl sulfamate] | 62 | 10 to 100 nM |  |  | 
